Measured values as given in US11407819B2, “Compositions and use of a fibrinogen binding motif present in EFB and COA for therapeutics and vaccines against Staphylococcus aureus” (priority 2013, dated 2022).

Biological target: Fibrinogen-D fragment
Experiment: Isothermal titration calorimetry (VP-ITC) of Coa peptides with Fg-D fragment
Parameters: species or system human
Details: one-binding site model, 10 μM Fg-D, read-out: dissociation constant (KD) to Fg-D
Description: Binding isotherms for the interaction of Fg-D with Coa peptide sCoa-RI (FIG. 14A), sCoa-R13 (FIG. 14B) and sCoa-RV (FIG. 14C) were generated by titrating the peptides (˜200 μM) into an ITC cell containing 10 μM Fg-D. The top panels show heat difference upon injection of coa peptides, and the lower panels show integrated heat of injections. The data were fitted to a one-binding site model (bottom panels), and binding affinities are expressed as dissociation constants (KD) or the reciprocal of the association constants determined by Microcal Origin software. N represents the binding ratio. To generate more quantitative binding data for the Coa peptide Fg interaction isothermal titration calorimetry and titrated the Coa peptides into a solution containing a fixed concentration of Fg-D fragments was used.
Isothermal titration calorimetry—The interaction between Coa peptides and the soluble, isolated Fibrinogen-D fragment was further characterized by isothermal titration calorimetry (ITC) using a VP-ITC microcalorimeter. The Fibrinogen-D fragment used in these studies was generated by digesting full length Fibrinogen with plasmin for 4 h and fractionating the digestion products by gel filtration chromatography. The ITC cell contained 10 μM Fibrinogen-D fragments and the syringe contained 150-200 μM Coa peptides in TBS (25 mM Tris, 3.0 mM KCl and 140 mM NaCl, pH 7.4). […]

Sequence of Fibrinogen-D fragment (P02671 130-216 limits assumed): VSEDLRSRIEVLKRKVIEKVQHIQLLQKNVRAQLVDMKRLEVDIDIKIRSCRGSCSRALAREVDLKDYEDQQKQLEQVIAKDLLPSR
Sequence of Fibrinogen-D fragment (P02675 164-491 limits assumed, further chain): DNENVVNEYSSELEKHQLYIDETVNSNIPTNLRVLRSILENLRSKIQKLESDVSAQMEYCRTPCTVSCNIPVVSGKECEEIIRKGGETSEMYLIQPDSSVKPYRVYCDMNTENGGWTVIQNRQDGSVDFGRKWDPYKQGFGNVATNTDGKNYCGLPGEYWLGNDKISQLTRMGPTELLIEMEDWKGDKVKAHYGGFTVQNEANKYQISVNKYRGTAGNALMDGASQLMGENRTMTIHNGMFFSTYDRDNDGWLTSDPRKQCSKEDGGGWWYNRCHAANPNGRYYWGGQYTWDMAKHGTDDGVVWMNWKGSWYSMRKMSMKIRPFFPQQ
Sequence of Fibrinogen-D fragment (P02679 114-432 limits assumed, further chain): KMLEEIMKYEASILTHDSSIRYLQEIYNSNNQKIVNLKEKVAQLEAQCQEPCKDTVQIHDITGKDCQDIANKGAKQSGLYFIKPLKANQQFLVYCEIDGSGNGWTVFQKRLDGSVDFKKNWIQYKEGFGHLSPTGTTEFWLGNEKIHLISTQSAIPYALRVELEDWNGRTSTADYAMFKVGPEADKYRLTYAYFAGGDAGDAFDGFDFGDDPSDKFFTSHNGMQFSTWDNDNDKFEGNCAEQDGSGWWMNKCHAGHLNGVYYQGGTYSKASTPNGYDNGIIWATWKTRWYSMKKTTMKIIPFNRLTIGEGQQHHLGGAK

Q: With “sCoa-RI: synthetic peptide, first 27 residues of repeat region, Coa 506-532 (ETNAYNVTTHANGQVSYGARPTYKKPS)” as the substance, how does the Kd read?
A: 88 nM
